The nature of the series: UVA:UVB ratio (radiation absorbed 320-400 nm vs 290-320 nm) of triazine compounds. The class given is physicochemical. The following applies: versus diethylhexyl butamido triazone and ethylhexyl triazone. An excerpt:
Typically, the numerical UV-A/UV-B ratio of these compounds, defined as the ratio between the intensity of the radiation absorbed between 320 nm and 400 nm (UVA fraction) and that absorbed between 290 nm and 320 nm (UVB fraction), is greater than 0.20, and preferably greater than 0.30, whereas in the analogous triazine compounds with a 4-aminobenzoate or 4-aminobenzamide substituent different from the substituents described in Formula (IV), it is below about 0.14.
The UVA:UVB ratio is the ratio between the intensity of the radiation absorbed between 320 nm and 400 nm (UVA fraction) and that absorbed between 290 nm and 320 nm (UVB fraction).
For `CCCCC(CC)COC(=O)c1ccc(NC(=O)c2ccc(Nc3nc(Nc4ccc(C(=O)NC(C)(C)C)cc4)nc(Nc4ccc(C(=O)OCC(CC)CCCC)cc4)n3)cc2)cc1` (stereo not drawn) [Compound of formula (VI)], the “UVA fraction relative to triazine analogues already known” value was “at least twice as high”.

Regarding `CCCCC(CC)COC(=O)c1ccc(NC(=O)c2ccc(Nc3nc(Nc4ccc(C(=O)OCC(CC)CCCC)cc4)nc(Nc4ccc(C(=O)OCC(CC)CCCC)cc4)n3)cc2)cc1` (stereo not drawn) [Compound of formula (VII)], the “UVA fraction relative to triazine analogues already known” value was “at least twice as high”.

In the case of `CCCCC(CC)COC(=O)c1ccc(NC(=O)c2ccc(Nc3nc(Nc4ccc(C(=O)Nc5ccc(C(=O)OCC(CC)CCCC)cc5)cc4)nc(Nc4ccc(C(=O)NC(C)(C)C)cc4)n3)cc2)cc1` (stereo not drawn) [Compound of formula (V)], the “UVA fraction relative to triazine analogues already known” value is listed as “at least twice as high”.

Values taken from US20180030001A1, “NEW TRIAZINE COMPOUNDS AS PHOTOSTABILIZING AGENTS” (3V Sigma S.P.A., priority 2016, published 2018).
